In patent US10604509B2, “Nrf2 regulators” (GlaxoSmithKline Intellectual Property Development Limited, priority 2015, dated 2020):
Where a name gives a salt, the structure may show the parent alone.

tested on: rats; assay: not given; conditions: cerebral ischemia-reperfusion model; cited from earlier work

For `CC(C)(C)c1cc(O)ccc1O` [tert-butylhydroquinone (tBHQ), tert-butylhydroquinone], the cortical damage is given as “reduced cortical damage”.

tested on: rats; assay: not given; conditions: rats on a choline-deficient L-amino acid-defined diet; cited from earlier work

For `O=C(NCc1ccccn1)Nc1nnc(-c2ccco2)o1` [NK-252], the “progression of histologic abnormalities, especially hepatic fibrosis” value is listed as “significantly attenuated progression of histologic abnormalities”.
For `Cc1c(-c2cnccn2)ssc1=S` [oltipraz], the “progression of histologic abnormalities, especially hepatic fibrosis” value is listed as “significantly attenuated progression of histologic abnormalities”.

tested on: mice; assay: not given; conditions: NRF2 wild-type and KO mice after administration; cited from earlier work

In the case of `CC(C)(C)c1cc(O)ccc1O` [tert-butylhydroquinone (tBHQ), tert-butylhydroquinone], the cortical glutathione levels is given as “increased in NRF2 wild-type but not KO mice”.

tested on: NQO1 specific enzyme activity in BEAS-2B cells; assay: BEAS-2B NQO1 MTT assay; type: cell-based; conditions: Homo sapiens, BEAS-2B, 48 h, BEAS-2B cells, 48 hours with compound, MTT readout; read-out: EC50 of NQO1 specific activity induction
Outline: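 BEAS-2B cells treated with compound 48 h at 37° C, 5% CO2, then lysed; NQO1 activity in lysate measured kinetically by MTT cocktail at Absorbance 570 nm over 30 min. EC50 for induction from Delta OD/min versus log concentration, 3-parameter fit; Cell Titer Glo run on lysate aliquot.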

Compared with `CCC1CN(Cc2cc(C(CC(=O)O)c3cc(OC)c4c(nnn4C)c3C)ccc2C)Cc2ccccc2O1` (stereo not shown) [Example 70, 3-(3-((2-Ethyl-2,3-dihydrobenzo[f][1,4]oxazepin-4(5H)-yl)methyl)-4-methylphenyl)-3-(7-methoxy-1,4-dimethyl-1H-benzo[d][1,2,3]triazol-5-yl)propanoic Acid, Formic Acid Salt], `CC[C@@H]1CN(Cc2cc([C@H](CC(=O)O)c3ccc4c(nnn4C)c3C)ccc2C)Cc2ccccc2O1` [Example 49, (S)-3-(1,4-Dimethyl-1H-benzo[d][1,2,3]triazol-5-yl)-3-(3-(((R)-2-ethyl-2,3-dihydrobenzo[f][1,4]oxazepin-4(5H)-yl)methyl)-4-methylphenyl)propanoic Acid, Formic Acid Salt] is higher in EC50: 10 to 100 nM for the first, 100 to 1000 nM for the second.

Compared with `CC[C@@H]1CN(Cc2cc(C(c3ccc(F)cc3C)C(C)(C)C(=O)O)ccc2C)Cc2ccccc2O1` (stereo partly drawn) [Example 115, 3-(3-(((R)-2-ethyl-2,3-dihydrobenzo[f][1,4]oxazepin-4(5H)-yl)methyl)-4-methylphenyl)-3-(4-fluoro-2-methylphenyl)-2,2-dimethylpropanoic Acid, Formic Acid Salt], `CCC1CN(Cc2cc(C(CC(=O)O)c3ccc4c(nnn4C)c3C)ccc2C)Cc2ccccc2O1` (stereo not shown) [Example 2, 3-(1,4-Dimethyl-1H-benzo[d][1,2,3]triazol-5-yl)-3-(3-((2-ethyl-2,3-dihydrobenzo[f][1,4]oxazepin-4(5H)-yl)methyl)-4-methylphenyl)propanoic Acid, Trifluoroacetic Acid Salt] is lower in EC50: 1000 to 10000 nM for the first, 100 to 1000 nM for the second. The second is the more potent here.

`CCn1nnc2c(F)c([C@H](c3ccc(C)c(CN4Cc5ccccc5OC(C)(C)C4)c3)[C@@H](C)C(=O)O)ccc21` [Example 193, (2R,3S)-3-(3-((2,2-Dimethyl-2,3-dihydro-benzo[f][1,4]oxazepin-4(5H)-yl)methyl)-4-methylphenyl)-3-(1-ethyl-4-fluoro-1H-benzo[d][1,2,3]triazol-5-yl)-2-methylpropanoic acid, Sodium salt] and `CCn1nnc2c(C)c([C@H](c3ccc(C)c(CN4Cc5ccccc5OC(C)(C)C4)c3)[C@@H](C)C(=O)O)ccc21` [Example 208, (2R,3S)-3-(3-((2,2-Dimethyl-2,3-dihydrobenzo[f][1,4]oxazepin-4(5H)-yl)methyl)-4-methylphenyl)-3-(1-ethyl-4-methyl-1H-benzo[d][1,2,3]triazol-5-yl)-2-methylpropanoic acid, 2 Trifluoroacetic Acid Salt] fall in the same range of EC50: 1 to 10 nM for the first, 1 to 10 nM for the second.

Compared with `CCC1CCN(Cc2nccn2Cc2cc(C(c3ccc4c(nnn4C)c3C)C(C)(C)C(=O)O)ccc2C)CC1` (stereo not shown) [Example 140, 3-(1,4-Dimethyl-1H-benzo[d][1,2,3]triazol-5-yl)-3-(3-((2-((4-ethylpiperidin-1-yl)methyl)-1H-imidazol-1-yl)methyl)-4-methylphenyl)-2,2-dimethylpropanoic acid, formic acid salt], `Cc1ccc(C(c2ccc3c(nnn3C)c2C)C(C)(C)C(=O)O)cc1Cn1ccnc1CC1CCCOCC1` (stereo not shown) [Example 245, 3-(1,4-Dimethyl-1H-benzo[d][1,2,3]triazol-5-yl)-2,2-dimethyl-3-(4-methyl-3-((2-(oxepan-4-ylmethyl)-1H-imidazol-1-yl)methyl)phenyl)propanoic Acid] is lower in EC50: 1000 to 10000 nM for the first, 10 to 100 nM for the second. The second is the more potent here.

Compared with `Cc1ccc(C(CC(=O)O)c2ccc3c(nnn3C)c2C)cc1CN1Cc2ccccc2CC(C)(C)C1` (stereo not shown) [Example 105, Ammonium 3-(1,4-dimethyl-1H-benzo[d][1,2,3]triazol-5-yl)-3-(3-((4,4-dimethyl-4,5-dihydro-1H-benzo[c]azepin-2(3H)-yl)methyl)-4-methylphenyl)propanoate], `CC[C@@H]1CN(Cc2cc(C(CC(=O)O)c3ccc4c(nnn4C)c3C)ccc2C)Cc2cc(F)ccc2O1` (stereo partly drawn) [Example 78, 3-(1,4-Dimethyl-1H-benzo[d][1,2,3]triazol-5-yl)-3-(3-(((R)-2-ethyl-7-fluoro-2,3-dihydrobenzo[f][1,4]oxazepin-4(5H)-yl)methyl)-4-methylphenyl)propanoic acid, formic acid salt] is higher in EC50: 10 to 100 nM for the first, 1000 to 10000 nM for the second. The first is the more potent here.

First: CC[C@@H]1CN(Cc2cc(C(CCc3cn(CC)nn3)C(C)C(=O)O)ccc2C)Cc2ncccc2O1 (stereo partly drawn) [Example 224, 5-(1-Ethyl-1H-1,2,3-triazol-4-yl)-3-(3-(((R)-2-ethyl-2,3-dihydropyrido[2,3-f][1,4]oxazepin-4(5H)-yl)methyl)-4-methylphenyl)-2-methylpentanoic Acid, 0.20 Formic Acid Salt]
Second: CC[C@@H]1CN(Cc2cc(C(CCc3cn(CC)nn3)C(C)(C)C(=O)O)ccc2C)Cc2ncccc2O1 (stereo partly drawn) [Example 216, 5-(1-Ethyl-1H-1,2,3-triazol-4-yl)-3-(3-(((R)-2-ethyl-2,3-dihydropyrido[2,3-f][1,4]oxazepin-4(5H)-yl)methyl)-4-methylphenyl)-2,2-dimethylpentanoic Acid]
The EC50 of the first is higher: 100 to 1000 nM for the first, 1 to 10 nM for the second. The second is the more potent here.

First: Cc1ccc(C(CC(=O)O)c2ccc3c(nnn3C)c2C)cc1Cc1cnnn1CC1CCCCC1 (stereo not shown) [Example 128, 3-(3-((1-(Cyclohexylmethyl)-1H-1,2,3-triazol-5-yl)methyl)-4-methylphenyl)-3-(1,4-dimethyl-1H-benzo[d][1,2,3]triazol-5-yl)propanoic acid]
Second: Cc1ccc(C(CC(=O)O)c2ccc3c(nnn3C)c2C)cc1Cn1nc(CC2CCCCC2)nc1C (stereo not shown) [Example 137, 3-(3-((3-(Cyclohexylmethyl)-5-methyl-1H-1,2,4-triazol-1-yl)methyl)-4-methylphenyl)-3-(1,4-dimethyl-1H-benzo[d][1,2,3]triazol-5-yl)propanoic Acid]
The EC50 of the first is higher: 1000 to 10000 nM for the first, 100 to 1000 nM for the second.

First: Cc1ncc(C(c2ccc3c(nnn3C)c2C)C(C)(C)C(=O)O)cc1Cn1ccnc1CC1CCCCCC1 (stereo not shown) [Example 214, 3-(5-((2-(Cycloheptylmethyl)-1H-imidazol-1-yl)methyl)-6-methylpyridin-3-yl)-3-(1,4-dimethyl-1H-benzo[d][1,2,3]triazol-5-yl)-2,2-dimethylpropanoic Acid, Trifluoroacetic Acid Salt]
Second: Cc1ccc(C(CC(=O)O)c2ccc3c(nnn3C)c2C)cc1CN1CCCC1c1nnc(C(C)C)[nH]1 (stereo not shown) [Example 10, Ammonium 3-(1,4-dimethyl-1H-benzo[d][1,2,3]triazol-5-yl)-3-(3-((2-(5-isopropyl-4H-1,2,4-triazol-3-yl)pyrrolidin-1-yl)methyl)-4-methylphenyl)propanoate]
The EC50 of the first is lower: 100 to 1000 nM for the first, 1000 to 10000 nM for the second. The first is the more potent here.

First: CC[C@@H]1CN(Cc2cc([C@@H](CC(=O)O)c3ccc4c(nnn4CC)c3Cl)ccc2C)Cc2ccccc2O1 [Example 67, (R)-3-(4-Chloro-1-ethyl-1H-benzo[d][1,2,3]triazol-5-yl)-3-(3-(((R)-2-ethyl-2,3-dihydrobenzo[f][1,4]oxazepin-4(5H)-yl)methyl)-4-methylphenyl)propanoate, Sodium Salt]
Second: CC[C@@H]1CN(Cc2cc([C@H](CC(=O)O)c3ccc4c(nnn4CC)c3F)ccc2C)Cc2ccccc2O1 (relative stereo) [compound 182, rel-(S)-3-(3-(((R)-2-Ethyl-2,3-dihydrobenzo[f][1,4]oxazepin-4(5H)-yl)methyl)-4-methylphenyl)-3-(1-ethyl-4-fluoro-1H-benzo[d][1,2,3]triazol-5-yl)propanoic acid]
The EC50 of the first is lower: 10 to 100 nM for the first, 100 to 1000 nM for the second. The first is the more potent here.

`CCn1cc(CCC(c2ccc(C)c(CN3Cc4ncccc4OC(C)(C)C3)c2)C(C)(C)C(=O)O)nn1` (stereo not shown) [Example 221, 3-(3-((2,2-Dimethyl-2,3-dihydropyrido[2,3-f][1,4]oxazepin-4(5H)-yl)methyl)-4-methylphenyl)-5-(1-ethyl-1H-1,2,3-triazol-4-yl)-2,2-dimethylpentanoic Acid] and `CC[C@@H]1CN(Cc2cc(C(CCc3cn(CC)nn3)C(C)(C)C(=O)O)ccc2C)Cc2ccncc2O1` (stereo partly drawn) [Example 220, 5-(1-Ethyl-1H-1,2,3-triazol-4-yl)-3-(3-(((R)-2-ethyl-2,3-dihydropyrido[4,3-f][1,4]oxazepin-4(5H)-yl)methyl)-4-methylphenyl)-2,2-dimethylpentanoic Acid, 3.2 Trifluoroacetic Acid Salt] fall in the same range of EC50: 10 to 100 nM for the first, 10 to 100 nM for the second.

`CCn1nnc2c(F)c([C@H](c3ccc(C)c(CN4Cc5cccnc5OC(C)(C)C4)c3)[C@@H](C)C(=O)O)ccc21` [Example 195, (2R,3S)-3-(3-((2,2-Dimethyl-2,3-dihydropyrldo[3,2-f][1,4]oxazepin-4(5H)-yl)methyl)-4-methylphenyl)-3-(1-ethyl-4-fluoro-1H-benzo[d][1,2,3]triazol-5-yl)-2-methylpropanoic acid] and `CC[C@@H]1CN(Cc2cc([C@H](CC(=O)O)c3ccc4c(nnn4C)c3C)ccc2Cl)Cc2ncccc2O1` [Example 263, (S)-3-(4-chloro-3-(((R)-2-ethyl-2,3-dihydropyrido[2,3-f][1,4]oxazepin-4(5H)-yl)methyl)phenyl)-3-(1,4-dimethyl-1H-benzo[d][1,2,3]triazol-5-yl)propanoic acid] fall in the same range of EC50: 10 to 100 nM for the first, 10 to 100 nM for the second.

tested on: COPD macrophages and alveolar macrophages from cigarette smoke-exposed mice; assay: not given; conditions: COPD macrophages and alveolar macrophages from cigarette smoke-exposed mice; cited from earlier work

For `C[S+]([O-])CCCCN=C=S` (stereo not shown) [Sulforaphane], the “expression of Macrophage Receptor with Collagenous structure (MARCO)” value is given as “increases the expression of Macrophage Receptor with Collagenous structure (MARCO)”.

same assay, conditions: Pseudomonas aeruginosa, non-typable Haemophilus influenzae; ex vivo and in vivo; cited from earlier work

For `C[S+]([O-])CCCCN=C=S` (stereo not shown) [Sulforaphane], the “bacterial phagocytosis and bacterial clearance” value is given as “improving in these cells bacterial phagocytosis”.
